pIC50: −log10 of the molar value.
Columns and labels:
Type in all cases: biochemical
PI3Kα = target: T1, PI3Kα (Homo sapiens, UniProt P42336); experiment: In vitro determination of the PI3K enzyme inhibitory activity in the cell free assay (ADP-Glo Kinase Assay), PI3Kα; settings: ATP 50 μM, read-out: PI3K alpha inhibition
T1 construct: purchased Millipore Ltd (Billerica, Mass.)
Method: (§1) In vitro Determination of the PI3K Enzyme Inhibitory Activity in the Cell Free Assay
(§2) Human recombinant proteins PI3Kα, PI3Kβ, PI3Kγ and PI3Kδ were purchased from Millipore Ltd (Billerica, Mass.). Compounds were dissolved at 0.5 mM in DMSO and were tested at different concentrations for their activity against PI3Ks using the ADP-Glo™ Kinase Assay (Promega, Madison Wis.) according to the manufacturer's instructions.
(§3) Briefly, the kinase reactions were performed in 384-well white plates (Greiner Bio-One GmbH, Frickenhausen). Each well was loaded with 0.1 μl of test compounds and 2.5 μl of 2× reaction buffer (40 mM Tris pH7.5, 0.5 mM EGTA, 0.5 mM Na3VO4, 5 mM β-glycerophosphate, 0.1 mg/ml BSA, 1 mM DTT), containing 50 μM PI and PS substrates (L-α-phosphatidylinositol sodium salt and L-α-phosphatidyl-L-serine, Sigma-Aldrich, St. Louis Mo.) and the PI3K recombinant proteins (PI3Kγ 0.25 ng/μl, PI3Kδ 1 ng/μl, PI3Kα 0.125 ng/μl, PI3Kβ 1 ng/μl).
(§4) The reactions were started by adding 2.5 μl of 2×ATP solution to each well (final concentrations: PI3Kγ ATP 30 μM; PI3Kδ ATP 80 μM; PI3KαATP 50 μM; PI3Kβ ATP 100 μM) and incubated for 60 min at room temperature. Subsequently, each kinase reaction was incubated for 40 min with 5 μl ADP-Glo™ Reagent, allowing depletion of unconsumed ATP. Then, the Kinase Detection Reagent (10 μl) was added in each well to convert ADP to ATP and to allow the newly synthesized ATP to be measured using a luciferase/luciferin reaction. Following 60 min incubation, the luminescence signal was measured using a Wallac EnVision® multilabel reader (PerkinElmer, Waltham Mass.).
(§5) Curve fitting and IC50 calculation were carried out using a four-parameter logistic model in XLfit (IDBS, Guilford, UK) for Microsoft Excel (Microsoft, Redmont, Wash.).

PI3Kβ = target: T2, PI3Kβ (Homo sapiens, UniProt P42338); experiment: In vitro determination of the PI3K enzyme inhibitory activity in the cell free assay (ADP-Glo Kinase Assay), PI3Kβ; settings: ATP 100 μM, read-out: PI3K beta inhibition
T2 construct: purchased Millipore Ltd (Billerica, Mass.)
T2 sequence (P42338 whole entry): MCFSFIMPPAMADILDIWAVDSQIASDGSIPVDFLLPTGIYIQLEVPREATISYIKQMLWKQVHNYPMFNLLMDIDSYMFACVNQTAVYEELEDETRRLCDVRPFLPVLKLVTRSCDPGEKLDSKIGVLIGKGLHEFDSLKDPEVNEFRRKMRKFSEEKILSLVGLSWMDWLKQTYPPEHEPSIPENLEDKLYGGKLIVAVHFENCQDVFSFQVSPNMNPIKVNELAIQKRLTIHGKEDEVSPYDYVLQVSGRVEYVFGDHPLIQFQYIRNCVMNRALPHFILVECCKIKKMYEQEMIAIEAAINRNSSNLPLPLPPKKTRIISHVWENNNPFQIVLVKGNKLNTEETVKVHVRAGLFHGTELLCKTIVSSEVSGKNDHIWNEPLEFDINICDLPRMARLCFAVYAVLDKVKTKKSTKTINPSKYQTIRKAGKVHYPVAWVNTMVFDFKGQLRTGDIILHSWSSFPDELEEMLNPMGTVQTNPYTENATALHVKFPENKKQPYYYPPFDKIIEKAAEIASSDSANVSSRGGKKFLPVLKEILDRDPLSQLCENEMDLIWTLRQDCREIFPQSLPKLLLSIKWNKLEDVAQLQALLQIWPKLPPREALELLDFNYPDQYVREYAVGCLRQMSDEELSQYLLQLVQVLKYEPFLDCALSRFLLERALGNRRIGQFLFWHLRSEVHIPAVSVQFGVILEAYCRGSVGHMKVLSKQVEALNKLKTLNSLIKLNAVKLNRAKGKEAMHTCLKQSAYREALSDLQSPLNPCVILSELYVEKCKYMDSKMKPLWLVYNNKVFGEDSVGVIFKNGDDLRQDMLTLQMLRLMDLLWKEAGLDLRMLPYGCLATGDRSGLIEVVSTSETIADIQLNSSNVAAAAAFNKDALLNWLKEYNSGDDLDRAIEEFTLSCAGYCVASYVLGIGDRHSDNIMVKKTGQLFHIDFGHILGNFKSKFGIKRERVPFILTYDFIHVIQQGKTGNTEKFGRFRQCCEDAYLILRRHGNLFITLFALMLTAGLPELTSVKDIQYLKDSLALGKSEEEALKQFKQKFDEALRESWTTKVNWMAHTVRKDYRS
T2 sequence (P27986 whole entry partner): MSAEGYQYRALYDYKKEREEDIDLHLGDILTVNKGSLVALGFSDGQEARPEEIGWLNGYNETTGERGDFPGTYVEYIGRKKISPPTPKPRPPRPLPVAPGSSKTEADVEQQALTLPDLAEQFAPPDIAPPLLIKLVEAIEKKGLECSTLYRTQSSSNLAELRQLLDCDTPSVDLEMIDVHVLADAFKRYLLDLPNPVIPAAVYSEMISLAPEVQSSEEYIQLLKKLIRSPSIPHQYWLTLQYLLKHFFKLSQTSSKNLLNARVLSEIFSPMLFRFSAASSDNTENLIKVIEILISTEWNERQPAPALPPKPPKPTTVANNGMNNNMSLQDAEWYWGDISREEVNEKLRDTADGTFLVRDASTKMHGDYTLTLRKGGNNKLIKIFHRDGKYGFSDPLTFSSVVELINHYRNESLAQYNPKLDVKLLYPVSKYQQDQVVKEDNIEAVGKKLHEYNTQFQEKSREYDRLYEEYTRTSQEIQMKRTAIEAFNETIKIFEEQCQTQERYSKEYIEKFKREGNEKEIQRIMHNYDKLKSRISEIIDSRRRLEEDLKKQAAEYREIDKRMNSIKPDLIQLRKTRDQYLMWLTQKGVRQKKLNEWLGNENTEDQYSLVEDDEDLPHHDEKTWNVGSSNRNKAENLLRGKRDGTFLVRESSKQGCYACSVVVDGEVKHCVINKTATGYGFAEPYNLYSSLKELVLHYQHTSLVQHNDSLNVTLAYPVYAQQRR
Method: as §1, §2, §3, §4, §5

PI3Kγ = target: T3, PI3Kγ (Homo sapiens, UniProt P48736); experiment: In vitro determination of the PI3K enzyme inhibitory activity in the cell free assay (ADP-Glo Kinase Assay), PI3Kγ; settings: ATP 30 μM, read-out: PI3K gamma inhibition
T3 construct: purchased Millipore Ltd (Billerica, Mass.)
T3 sequence (P48736 whole entry): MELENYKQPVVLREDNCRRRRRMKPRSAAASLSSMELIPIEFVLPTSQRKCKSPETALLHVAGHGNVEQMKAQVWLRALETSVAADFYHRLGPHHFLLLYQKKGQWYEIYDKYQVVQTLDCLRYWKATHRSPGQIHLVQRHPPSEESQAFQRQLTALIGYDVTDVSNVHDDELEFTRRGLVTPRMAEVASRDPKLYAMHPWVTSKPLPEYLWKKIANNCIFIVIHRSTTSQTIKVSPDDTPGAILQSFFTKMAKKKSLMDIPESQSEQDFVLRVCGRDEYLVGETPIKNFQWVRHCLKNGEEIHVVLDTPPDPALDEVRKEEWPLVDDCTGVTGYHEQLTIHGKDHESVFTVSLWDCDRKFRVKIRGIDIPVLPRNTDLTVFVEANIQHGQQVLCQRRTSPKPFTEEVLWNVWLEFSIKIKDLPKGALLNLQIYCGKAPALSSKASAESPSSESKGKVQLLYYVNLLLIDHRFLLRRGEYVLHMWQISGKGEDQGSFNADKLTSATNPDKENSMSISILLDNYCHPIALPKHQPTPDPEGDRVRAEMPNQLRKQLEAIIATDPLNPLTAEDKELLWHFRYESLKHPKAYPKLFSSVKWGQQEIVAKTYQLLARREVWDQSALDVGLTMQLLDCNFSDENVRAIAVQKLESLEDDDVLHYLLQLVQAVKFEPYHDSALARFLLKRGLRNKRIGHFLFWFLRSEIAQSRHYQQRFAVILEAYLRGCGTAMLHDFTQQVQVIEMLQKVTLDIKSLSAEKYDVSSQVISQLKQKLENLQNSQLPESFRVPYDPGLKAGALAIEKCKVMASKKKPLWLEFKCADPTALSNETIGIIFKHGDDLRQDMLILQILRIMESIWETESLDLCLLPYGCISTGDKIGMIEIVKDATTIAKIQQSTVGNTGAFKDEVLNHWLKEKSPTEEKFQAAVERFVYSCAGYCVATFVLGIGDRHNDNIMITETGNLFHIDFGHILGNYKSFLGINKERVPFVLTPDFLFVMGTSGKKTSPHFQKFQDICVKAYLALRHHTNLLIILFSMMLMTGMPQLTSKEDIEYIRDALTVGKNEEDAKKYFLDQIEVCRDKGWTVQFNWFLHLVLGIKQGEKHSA
Method: as §1, §2, §3, §4, §5

PI3Kδ = target: T4, PI3Kδ (Homo sapiens, UniProt O00329); experiment: In vitro determination of the PI3K enzyme inhibitory activity in the cell free assay (ADP-Glo Kinase Assay), PI3Kδ; settings: ATP 80 μM, read-out: PI3K delta inhibition
T4 construct: purchased Millipore Ltd (Billerica, Mass.)
T4 sequence (O00329 whole entry): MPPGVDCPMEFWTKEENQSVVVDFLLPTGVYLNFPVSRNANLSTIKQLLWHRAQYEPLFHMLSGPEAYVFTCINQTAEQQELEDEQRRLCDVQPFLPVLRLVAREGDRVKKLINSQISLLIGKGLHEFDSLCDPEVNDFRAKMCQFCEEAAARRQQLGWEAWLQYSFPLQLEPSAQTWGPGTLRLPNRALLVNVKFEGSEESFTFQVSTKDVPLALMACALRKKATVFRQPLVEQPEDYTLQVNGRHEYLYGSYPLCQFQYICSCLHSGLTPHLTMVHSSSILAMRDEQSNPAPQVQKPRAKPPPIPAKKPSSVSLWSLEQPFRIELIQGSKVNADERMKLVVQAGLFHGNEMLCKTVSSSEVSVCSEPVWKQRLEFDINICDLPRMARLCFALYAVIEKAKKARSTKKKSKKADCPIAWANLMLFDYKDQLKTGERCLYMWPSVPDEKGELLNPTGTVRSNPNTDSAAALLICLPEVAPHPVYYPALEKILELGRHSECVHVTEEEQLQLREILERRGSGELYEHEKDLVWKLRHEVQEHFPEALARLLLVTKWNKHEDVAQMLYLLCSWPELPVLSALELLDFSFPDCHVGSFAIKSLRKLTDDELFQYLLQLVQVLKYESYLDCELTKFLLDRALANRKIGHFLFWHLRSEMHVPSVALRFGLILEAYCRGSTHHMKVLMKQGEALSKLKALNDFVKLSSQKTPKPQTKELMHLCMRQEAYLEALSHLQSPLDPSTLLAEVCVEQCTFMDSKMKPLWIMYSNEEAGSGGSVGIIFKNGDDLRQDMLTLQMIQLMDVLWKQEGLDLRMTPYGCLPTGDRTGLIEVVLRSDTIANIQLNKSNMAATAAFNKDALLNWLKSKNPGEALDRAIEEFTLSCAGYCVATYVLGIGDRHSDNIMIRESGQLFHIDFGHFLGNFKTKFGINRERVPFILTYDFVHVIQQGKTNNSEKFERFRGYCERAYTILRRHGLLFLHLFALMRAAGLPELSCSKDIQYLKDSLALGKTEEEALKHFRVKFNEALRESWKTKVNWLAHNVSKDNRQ
T4 sequence (P27986 whole entry partner): as the sequence (P27986 whole entry partner) above
Method: as §1, §2, §3, §4, §5

T1 sequence (P42336 whole entry): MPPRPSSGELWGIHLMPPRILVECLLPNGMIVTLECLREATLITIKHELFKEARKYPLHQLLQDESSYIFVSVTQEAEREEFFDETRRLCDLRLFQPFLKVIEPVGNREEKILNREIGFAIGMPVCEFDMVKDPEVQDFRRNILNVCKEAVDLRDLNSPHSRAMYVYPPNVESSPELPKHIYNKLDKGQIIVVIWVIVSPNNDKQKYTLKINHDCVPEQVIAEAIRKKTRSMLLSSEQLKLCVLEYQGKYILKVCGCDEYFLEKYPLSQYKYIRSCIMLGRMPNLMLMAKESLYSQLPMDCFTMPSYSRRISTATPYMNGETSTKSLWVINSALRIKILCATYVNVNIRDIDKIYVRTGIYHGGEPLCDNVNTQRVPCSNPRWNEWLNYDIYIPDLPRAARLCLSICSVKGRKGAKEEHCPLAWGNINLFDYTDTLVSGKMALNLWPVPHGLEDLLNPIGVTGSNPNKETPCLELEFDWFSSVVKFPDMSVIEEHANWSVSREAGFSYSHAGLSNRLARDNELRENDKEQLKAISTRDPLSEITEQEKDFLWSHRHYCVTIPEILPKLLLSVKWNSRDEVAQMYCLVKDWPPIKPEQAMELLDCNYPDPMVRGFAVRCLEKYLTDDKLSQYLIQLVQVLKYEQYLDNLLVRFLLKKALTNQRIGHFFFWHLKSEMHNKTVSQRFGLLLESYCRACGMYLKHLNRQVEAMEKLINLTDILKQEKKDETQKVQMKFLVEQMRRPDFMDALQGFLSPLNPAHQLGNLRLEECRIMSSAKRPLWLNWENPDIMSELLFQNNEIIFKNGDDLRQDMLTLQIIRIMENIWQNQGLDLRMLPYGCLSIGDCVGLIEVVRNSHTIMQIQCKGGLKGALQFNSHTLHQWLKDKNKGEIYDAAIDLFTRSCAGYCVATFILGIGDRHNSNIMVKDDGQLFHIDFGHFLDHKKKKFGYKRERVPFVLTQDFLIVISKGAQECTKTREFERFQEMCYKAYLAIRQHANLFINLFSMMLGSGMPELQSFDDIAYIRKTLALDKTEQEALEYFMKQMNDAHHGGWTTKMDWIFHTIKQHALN
T1 sequence (P27986 whole entry partner): as the sequence (P27986 whole entry partner) above

pIC50 (PI3Kα)	pIC50 (PI3Kβ)	pIC50 (PI3Kγ)	pIC50 (PI3Kδ)	Compound
< 6.00	6.00 to 8.00	< 6.00	6.00 to 8.00	CC(c1cc2ccccn2c1-c1cccc(C2CCCN2C)c1)n1nc(-c2cc(O)cc(F)c2)c2c(N)ncnc21 (mixture of isomers) [Example 118, 3-[4-amino-1-(1-{3-[3-(1-methylpyrrolidin-2-yl)phenyl]indolizin-2-yl}ethyl)-1H-pyrazolo[3,4-d]pyrimidin-3-yl]-5-fluorophenol]
6.00 to 8.00	6.00 to 8.00	6.00 to 8.00	> 8.00	CC(c1cc2ccccn2c1-c1ccccn1)n1nc(-c2cc(O)cc(F)c2)c2c(N)ncnc21 (racemic) [Example 79, 3-(4-amino-1-{1-[3-(pyridin-2-yl)indolizin-2-yl]ethyl}-1H-pyrazolo[3,4-d]pyrimidin-3-yl)-5-fluorophenol]
< 6.00	6.00 to 8.00	6.00 to 8.00	> 8.00	CC(c1cc2ccccn2c1-c1ccncc1)n1nc(-c2cc(O)cc(F)c2)c2c(N)ncnc21 (racemic) [Example 82, 3-(4-amino-1-{1-[3-(pyridin-4-yl)indolizin-2-yl]ethyl}-1H-pyrazolo[3,4-d]pyrimidin-3-yl)-5-fluorophenol]
6.00 to 8.00	6.00 to 8.00	6.00 to 8.00	6.00 to 8.00	CC(c1cc2ccccn2c1-c1cccc(CN(C)C)c1)n1nc(-c2cc(O)cc(F)c2)c2c(N)ncnc21 (racemic) [Example 93, 3-{4-amino-1-[1-(3-{3-[(dimethylamino)methyl]phenyl}indolizin-2-yl)ethyl]-1H-pyrazolo[3,4-d]pyrimidin-3-yl}-5-fluorophenol]
6.00 to 8.00	6.00 to 8.00	6.00 to 8.00	> 8.00	C[C@@H](c1cc2ccccn2c1-c1ccccn1)n1nc(-c2cc(O)cc(F)c2)c2c(N)ncnc21 (single isomer, unassigned) [Example 80, 3-(4-amino-1-{1-[3-(pyridin-2-yl)indolizin-2-yl]ethyl}-1H-pyrazolo[3,4-d]pyrimidin-3-yl)-5-fluorophenol]
< 6.00	< 6.00	< 6.00	6.00 to 8.00	C[C@@H](c1cc2ccccn2c1-c1ccccn1)n1nc(-c2cc(O)cc(F)c2)c2c(N)ncnc21 (single isomer, unassigned) [Example 81, 3-(4-amino-1-{1-[3-(pyridin-2-yl)indolizin-2-yl]ethyl}-1H-pyrazolo[3,4-d]pyrimidin-3-yl)-5-fluorophenol]
6.00 to 8.00	6.00 to 8.00	6.00 to 8.00	> 8.00	C[C@@H](c1cc2ccccn2c1-c1ccncc1)n1nc(-c2cc(O)cc(F)c2)c2c(N)ncnc21 (single isomer, unassigned) [Example 83, 3-(4-amino-1-{1-[3-(pyridin-4-yl)indolizin-2-yl]ethyl}-1H-pyrazolo[3,4-d]pyrimidin-3-yl)-5-fluorophenol]
< 6.00	< 6.00	< 6.00	6.00 to 8.00	C[C@@H](c1cc2ccccn2c1-c1ccncc1)n1nc(-c2cc(O)cc(F)c2)c2c(N)ncnc21 (single isomer, unassigned) [Example 84, 3-(4-amino-1-{1-[3-(pyridin-4-yl)indolizin-2-yl]ethyl}-1H-pyrazolo[3,4-d]pyrimidin-3-yl)-5-fluorophenol]
6.00 to 8.00	6.00 to 8.00	< 6.00	> 8.00	C[C@H](c1cc2ccccn2c1-c1cccc(CN(C)C)c1)n1nc(-c2cc(O)cc(F)c2)c2c(N)ncnc21 (single isomer, unassigned) [Example 93a, 3-{4-amino-1-[1-(3-{3-[(dimethylamino)methyl]phenyl}indolizin-2-yl)ethyl]-1H-pyrazolo[3,4-d]pyrimidin-3-yl}-5-fluorophenol]
< 6.00	6.00 to 8.00	< 6.00	6.00 to 8.00	C[C@H](c1cc2ccccn2c1-c1cccc(CN(C)C)c1)n1nc(-c2cc(O)cc(F)c2)c2c(N)ncnc21 (single isomer, unassigned) [Example 93b, 3-{4-amino-1-[1-(3-{3-[(dimethylamino)methyl]phenyl}indolizin-2-yl)ethyl]-1H-pyrazolo[3,4-d]pyrimidin-3-yl}-5-fluorophenol]
< 6.00	6.00 to 8.00	< 6.00	> 8.00	C[C@H](c1cc2ccccn2c1-c1ccc(CN2CCOCC2)cn1)n1nc(-c2cc(O)cc(F)c2)c2c(N)ncnc21 (single isomer, unassigned) [Example 108a, 3-[4-amino-1-(1-{3-[5-(morpholin-4-ylmethyl)pyridin-2-yl]indolizin-2-yl}ethyl)-1H-pyrazolo[3,4-d]pyrimidin-3-yl]-5-fluorophenol]
< 6.00	6.00 to 8.00	< 6.00	> 8.00	C[C@H](c1cc2ccccn2c1-c1ccc(CN2CCOCC2)cn1)n1nc(-c2cc(O)cc(F)c2)c2c(N)ncnc21 (single isomer, unassigned) [Example 108b, 3-[4-amino-1-(1-{3-[5-(morpholin-4-ylmethyl)pyridin-2-yl]indolizin-2-yl}ethyl)-1H-pyrazolo[3,4-d]pyrimidin-3-yl]-5-fluorophenol]
6.00 to 8.00	6.00 to 8.00	6.00 to 8.00	> 8.00	C[C@H](c1cc2ccccn2c1-c1ccc(CN2CCN(C)CC2)cn1)n1nc(-c2cc(O)cc(F)c2)c2c(N)ncnc21 (single isomer, unassigned) [Example 114a, 3-{4-amino-1-[1-(3-{5-[(4-methylpiperazin-1-yl)methyl]pyridin-2-yl}indolizin-2-yl)ethyl]-1H-pyrazolo[3,4-d]pyrimidin-3-yl}-5-fluorophenol]
6.00 to 8.00	6.00 to 8.00	6.00 to 8.00	> 8.00	C[C@H](c1cc2ccccn2c1-c1ccc(CN2CCN(C)CC2)cn1)n1nc(-c2cc(O)cc(F)c2)c2c(N)ncnc21 (single isomer, unassigned) [Example 114b, 3-{4-amino-1-[1-(3-{5-[(4-methylpiperazin-1-yl)methyl]pyridin-2-yl}indolizin-2-yl)ethyl]-1H-pyrazolo[3,4-d]pyrimidin-3-yl}-5-fluorophenol]
6.00 to 8.00	6.00 to 8.00	< 6.00	> 8.00	C[C@H](c1cc2ccccn2c1-c1ccc(CN(CCO)CCO)cn1)n1nc(-c2cc(O)cc(F)c2)c2c(N)ncnc21 (single isomer, unassigned) [Example 117a, 3-(4-amino-1-{1-[3-(5-{[bis(2-hydroxyethyl)amino]methyl}pyridin-2-yl)indolizin-2-yl]ethyl}-1H-pyrazolo[3,4-d]pyrimidin-3-yl)-5-fluorophenol]
6.00 to 8.00	6.00 to 8.00	< 6.00	> 8.00	C[C@H](c1cc2ccccn2c1-c1ccc(CN(CCO)CCO)cn1)n1nc(-c2cc(O)cc(F)c2)c2c(N)ncnc21 (single isomer, unassigned) [Example 117b, 3-(4-amino-1-{1-[3-(5-{[bis(2-hydroxyethyl)amino]methyl}pyridin-2-yl)indolizin-2-yl]ethyl}-1H-pyrazolo[3,4-d]pyrimidin-3-yl)-5-fluorophenol]
< 6.00	< 6.00	< 6.00	6.00 to 8.00	C[C@H](c1cc2ccccn2c1-c1ccn(CCN2CCOCC2)c(=O)c1)n1nc(-c2cc(O)cc(F)c2)c2c(N)ncnc21 (single isomer, unassigned) [Example 121a, 4-(2-{1-[4-amino-3-(3-fluoro-5-hydroxyphenyl)-1H-pyrazolo[3,4-d]pyrimidin-1-yl]ethyl}indolizin-3-yl)-1-[2-(morpholin-4-yl)ethyl]-1,2-dihydropyridin-2-one]
6.00 to 8.00	6.00 to 8.00	6.00 to 8.00	> 8.00	C[C@H](c1cc2ccccn2c1-c1ccn(CCN2CCOCC2)c(=O)c1)n1nc(-c2cc(O)cc(F)c2)c2c(N)ncnc21 (single isomer, unassigned) [Example 121b, 4-(2-{1-[4-amino-3-(3-fluoro-5-hydroxyphenyl)-1H-pyrazolo[3,4-d]pyrimidin-1-yl]ethyl}indolizin-3-yl)-1-[2-(morpholin-4-yl)ethyl]-1,2-dihydropyridin-2-one]
